For one test, the target named is KRas(G12V) (Homo sapiens (Human), UniProt P01116, G12V). The test is described as follows: KRas(G12V) GDP HTRF (BODIPY-GDP exchange TR-FRET). The format is biochemical.
The target in the next test is KRas (Homo sapiens (Human), UniProt P01116). Kind of test: KRas GDP HTRF (BODIPY-GDP exchange TR-FRET). It is filed as biochemical. Summed up:
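Inhibition of SOS1-mediated exchange of BODIPY-GDP on KRAS G12D, started with 3 nM recombinant human SOS1 and 300 nM BODIPY-GDP and read after 60 min. TR-FRET excitation 337 nm, ratio 520/490 nm ×10,000. IC50 from 4-parameter Hill fit of normalized data.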
A general note: In TR-FRET formats the signal depends on donor and acceptor labels being close together.

Sequence of KRas (P01116-2 other isoform, or with tags, fused parts or gaps): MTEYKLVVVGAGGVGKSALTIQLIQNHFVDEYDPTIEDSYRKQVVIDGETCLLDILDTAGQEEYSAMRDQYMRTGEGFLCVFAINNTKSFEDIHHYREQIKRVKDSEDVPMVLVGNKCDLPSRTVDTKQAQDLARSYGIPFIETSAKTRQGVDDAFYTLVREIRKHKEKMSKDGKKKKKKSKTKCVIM
Sequence of KRas(G12V) (P01116-2 other isoform, or with tags, fused parts or gaps G12V): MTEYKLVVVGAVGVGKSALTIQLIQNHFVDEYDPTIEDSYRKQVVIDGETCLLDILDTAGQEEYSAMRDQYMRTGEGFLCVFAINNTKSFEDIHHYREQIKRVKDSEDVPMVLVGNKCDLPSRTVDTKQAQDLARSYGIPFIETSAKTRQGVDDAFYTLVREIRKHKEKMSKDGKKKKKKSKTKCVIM

For orientation: IC50 means the concentration that inhibits the measured activity by half. Lower therefore signals inhibition by little substance. For `Cc1cc(N)nc(-c2c(Cl)c3c4c(nc(OC[C@@H]5CC[C@H]6CO[C@H](C)CN56)nc4c2F)N([C@H](C)c2cccnc2N)CCO3)c1C(F)(F)F` (atropisomer, axis not shown; (aS)) [Example 93c, 6-((R)-4-((R)-1-(2-aminopyridin-3-yl)ethyl)-8-chloro-10-fluoro-2-(((3R,6S,8aS)-3-methylhexahydro-1H-pyrrolo[2,1-c][1,4]oxazin-6-yl)methoxy)-5,6-dihydro-4H-[1,4]oxazepino[5,6,7-de]quinazolin-9-yl)-4-methyl-5-(trifluoromethyl)pyridin-2-amine], the IC50 on KRas(G12V) was 0.07 nM; on KRas, 0.145 nM.
For `Cc1cc(N)nc(-c2c(Cl)c3c4c(nc(OC[C@@H]5C[C@@]6(CN5C)CC6(F)F)nc4c2F)N([C@H](C)c2nccnc2N)CCO3)c1C(F)(F)F` (atropisomer, axis not shown) [Example 171a, 3-((R)-1-((R)-9-(6-amino-4-methyl-3-(trifluoromethyl)pyridin-2-yl)-8-chloro-2-(((3S,6S)-1,1-difluoro-5-methyl-5-azaspiro[2.4]heptan-6-yl)methoxy)-10-fluoro-5,6-dihydro-4H-[1,4]oxazepino[5,6,7-de]quinazolin-4-yl)ethyl)pyrazin-2-amine] the same measures were 0.7 nM and 2.2 nM.
Taken in the same sequence, the figures for `Cc1cc(N)nc(-c2c(Cl)c3c4c(nc(OC[C@@H]5CCCN5C)nc4c2F)N([C@H](C)c2cccnc2N)CCO3)c1C(F)(F)F` (atropisomer, axis not shown) [Example 127, 6-((R)-4-((R)-1-(2-aminopyridin-3-yl)ethyl)-8-chloro-10-fluoro-2-(((S)-1-methylpyrrolidin-2-yl)methoxy)-5,6-dihydro-4H-[1,4]oxazepino[5,6,7-de]quinazolin-9-yl)-4-methyl-5-(trifluoromethyl)pyridin-2-amine] were 0.07 nM and 0.0894 nM.
For `Cc1cc(N)nc(-c2c(Cl)c3c4c(nc(OC[C@@]56CCCN5CCOC6)nc4c2F)N([C@H](C)c2cccnc2N)CCO3)c1C(F)(F)F` (atropisomer, axis not shown) [Example 128b, 6-((R)-4-((R)-1-(2-aminopyridin-3-yl)ethyl)-8-chloro-10-fluoro-2-(((S)-tetrahydro-1H-pyrrolo[2,1-c][1,4]oxazin-8a(6H)-yl)methoxy)-5,6-dihydro-4H-[1,4]oxazepino[5,6,7-de]quinazolin-9-yl)-4-methyl-5-(trifluoromethyl)pyridin-2-amine] the same measures were 0.19 nM and 0.469 nM.
In the case of `Cc1cc(N)nc(-c2c(Cl)c3c4c(nc(OC[C@]56CCCN5CCOC6)nc4c2F)N([C@H](C)c2cccnc2N)CCO3)c1C(F)(F)F` (atropisomer, axis not shown) [Example 128a, 6-((R)-4-((R)-1-(2-aminopyridin-3-yl)ethyl)-8-chloro-10-fluoro-2-(((R)-tetrahydro-1H-pyrrolo[2,1-c][1,4]oxazin-8a(6H)-yl)methoxy)-5,6-dihydro-4H-[1,4]oxazepino[5,6,7-de]quinazolin-9-yl)-4-methyl-5-(trifluoromethyl)pyridin-2-amine], the concentration for half-maximal inhibition (IC50) amounted to 0.09 nM at KRas(G12V) and 0.149 nM against KRas.
Taken in the same sequence, the figures for `Cc1cc(N)nc(-c2cc3ncnc4c3c(c2Cl)OCCN4[C@@H](C)c2cncc(N)c2)c1C(F)(F)F` [Example 4, (S)-6-(4-(1-(5-aminopyridin-3-yl)ethyl)-8-chloro-5,6-dihydro-4H-[1,4]oxazepino[5,6,7-de]quinazolin-9-yl)-4-methyl-5-(trifluoromethyl)pyridin-2-amine] were 1400 nM and 10000 nM.
Taken in the same sequence, the figures for `Cc1cc(N)nc(-c2c(Cl)c3c4c(nc(OC[C@@H]5CC[C@H]6COCCN65)nc4c2F)N([C@H](C)c2nccnc2N)CCO3)c1C(F)(F)F` (atropisomer, axis not shown; (aS)) [Example 104b, 3-((R)-1-((S)-9-(6-amino-4-methyl-3-(trifluoromethyl)pyridin-2-yl)-8-chloro-10-fluoro-2-(((6S,8aS)-hexahydro-1H-pyrrolo[2,1-c][1,4]oxazin-6-yl)methoxy)-5,6-dihydro-4H-[1,4]oxazepino[5,6,7-de]quinazolin-4-yl)ethyl)pyrazin-2-amine] were 16 nM and 35.2 nM.
With `Cc1cc(N)nc(-c2cc3ncnc4c3c(c2Cl)OCCN4C2CCc3c(N)cncc32)c1C(F)(F)F` (stereo not drawn) [Example 37, 7-(9-(6-amino-4-methyl-3-(trifluoromethyl)pyridin-2-yl)-8-chloro-5,6-dihydro-4H-[1,4]oxazepino[5,6,7-de]quinazolin-4-yl)-6,7-dihydro-5H-cyclopenta[c]pyridin-4-amine], the results for the IC50 at KRas(G12V) and against KRas were 53 nM and 270 nM, respectively.
Taken in the same sequence, the figures for `Cc1cc(N)nc(-c2c(Cl)c3c4c(nc(OC[C@@]56CCCN5CC(F)(F)C6)nc4c2F)N([C@H](C)c2nccnc2N)CCO3)c1C(F)(F)F` (atropisomer, axis not shown) [Example 165a, 3-((R)-1-((R)-9-(6-amino-4-methyl-3-(trifluoromethyl)pyridin-2-yl)-8-chloro-2-(((S)-2,2-difluorotetrahydro-1H-pyrrolizin-7a(5H)-yl)methoxy)-10-fluoro-5,6-dihydro-4H-[1,4]oxazepino[5,6,7-de]quinazolin-4-yl)ethyl)pyrazin-2-amine] were 0.69 nM and 2.14 nM.
For `Cc1cc(N)nc(-c2cc3nc(OCC4(N(C)C)COC4)nc4c3c(c2Cl)OCCN4Cc2cccnc2N)c1C(F)(F)F` [Example 54, 6-(4-((2-aminopyridin-3-yl)methyl)-8-chloro-2-((3-(dimethylamino)oxetan-3-yl)methoxy)-5,6-dihydro-4H-[1,4]oxazepino[5,6,7-de]quinazolin-9-yl)-4-methyl-5-(trifluoromethyl)pyridin-2-amine] the same measures were 41 nM and 310 nM.
Take `Cc1cc(N)nc(-c2c(Cl)c3c4c(nc(OC[C@@]56CCCN5C[C@H](F)C6)nc4c2F)N(C)CCO3)c1C(F)(F)F` (single isomer, unassigned) [Example 41b]: the IC50 on KRas(G12V) came out at 1200 nM; on KRas it was 6500 nM.
In the case of `Cc1cc(N)nc(-c2cc3ncnc4c3c(c2Cl)OCCN4C(C)c2cnc[nH]2)c1C(F)(F)F` (stereo not drawn) [Example 15, 6-(4-(1-(1H-imidazol-5-yl)ethyl)-8-chloro-5,6-dihydro-4H-[1,4]oxazepino[5,6,7-de]quinazolin-9-yl)-4-methyl-5-(trifluoromethyl)pyridin-2-amine], the IC50 against KRas(G12V) was found to be 3600 nM; against KRas it was 31000 nM.
For `Cc1cc(N)nc(-c2c(Cl)c3c4c(nc(OC[C@@H]5CC(F)(F)CN5C)nc4c2F)N([C@H](C)c2ccnnc2N)CCO3)c1C(F)(F)F` (atropisomer, axis not shown) [Example 85, 4-((R)-1-((R)-9-(6-amino-4-methyl-3-(trifluoromethyl)pyridin-2-yl)-8-chloro-2-(((S)-4,4-difluoro-1-methylpyrrolidin-2-yl)methoxy)-10-fluoro-5,6-dihydro-4H-[1,4]oxazepino[5,6,7-de]quinazolin-4-yl)ethyl)pyridazin-3-amine] the same measures were 0.09 nM and 0.165 nM.
For `Cc1cc(N)nc(-c2c(Cl)c3c4c(nc(OC[C@@H]5C[C@H]6COCCN65)nc4c2F)N([C@H](C)c2cccnc2N)CCO3)c1C(F)(F)F` (atropisomer, axis not shown) [Example 99a, 6-((R)-2-(((6S,8S)-4-oxa-1-azabicyclo[4.2.0]octan-8-yl)methoxy)-4-((R)-1-(2-aminopyridin-3-yl)ethyl)-8-chloro-10-fluoro-5,6-dihydro-4H-[1,4]oxazepino[5,6,7-de]quinazolin-9-yl)-4-methyl-5-(trifluoromethyl)pyridin-2-amine] the same measures were 0.07 nM and 0.125 nM.
For `Cc1cc(N)nc(-c2c(Cl)c3c4c(nc(OC[C@@H]5CC[C@H]6COCCN65)nc4c2F)N([C@H](C)c2cncc(N)c2)CCO3)c1C(F)(F)F` (single isomer, unassigned) [Example 69a] the same measures were 0.11 nM and 0.295 nM.
As for `Cc1cc(N)nc(-c2cc3ncnc4c3c(c2Cl)OCCN4Cc2cc(Cl)cnc2N)c1C(F)(F)F` [Example 52, 6-[13-[(2-amino-5-chloro-3-pyridyl)methyl]-8-chloro-10-oxa-2,4,13-triazatricyclo[7.4.1.05,14]tetradeca-1,3,5(14),6,8-pentaen-7-yl]-4-methyl-5-(trifluoromethyl)pyridin-2-amine], the IC50 came to 2400 nM against KRas(G12V) and 9600 nM on KRas.
For `C[C@H](c1cccnc1N)N1CCOc2c(Cl)c(-c3cccc4sc(N)nc34)c(F)c3nc(OC[C@@]45CCCN4C[C@H](F)C5)nc1c23` (atropisomer, axis not shown; (aS)) [Example 100a, 4-((R)-4-((R)-1-(2-aminopyridin-3-yl)ethyl)-8-chloro-10-fluoro-2-(((2R,7aS)-2-fluorotetrahydro-1H-pyrrolizin-7a(5H)-yl)methoxy)-5,6-dihydro-4H-[1,4]oxazepino[5,6,7-de]quinazolin-9-yl)benzo[d]thiazol-2-amine] the same measures were 0.03 nM and 0.03 nM.
For `Cc1cc(N)nc(-c2c(Cl)c3c4c(nc(OC[C@@H]5CC[C@H]6CO[C@@H](C)CN56)nc4c2F)N([C@H](C)c2cccnc2N)CCO3)c1C(F)(F)F` (atropisomer, axis not shown; (aS)) [Example 93a, 6-((R)-4-((R)-1-(2-aminopyridin-3-yl)ethyl)-8-chloro-10-fluoro-2-(((3S,6S,8aS)-3-methylhexahydro-1H-pyrrolo[2,1-c][1,4]oxazin-6-yl)methoxy)-5,6-dihydro-4H-[1,4]oxazepino[5,6,7-de]quinazolin-9-yl)-4-methyl-5-(trifluoromethyl)pyridin-2-amine] the same measures were 0.09 nM and 0.201 nM.

The record behind these values is patent publication US20240383915A1, “OXAZEPINE COMPOUNDS AND USES THEREOF IN THE TREATMENT OF CANCER” (Genentech, Inc., priority 2021, published 2024).
